Test results published in patent publication US20090074815A1, “Immunomodulator Compounds as Vaccine Enhancers” (SCICLONE PHARMACEUTICALS, INC., priority 2005, published 2009).
Like-named read-outs stand apart in the source and are kept apart here.

Legend:
[1] = Indices of humoral immunity (CD20+, IgA, IgM, IgG, CH50, circulating immune complexes) before and after vaccination; details: patients with infectious syndrome, hepatitis B vaccination with SCV-07, after vaccination, n = 16, M ± m
Method: This group, which received SCV-07 and hepatitis B vaccine, included thirty-three (33) essentially healthy students from the Chelyabinsk State Medical Academy.
The hepatitis vaccine Engerix-B® produced by SmithKlineBeecham-Biomed (Russia) was administered as a course of 3 doses given at months 0, 1, and 6. Immunological examinations of the subjects were carried out before the first administration of the vaccine and at one month after completion of the course of immunization.
Participants were evaluated to determine levels of leukocytes in peripheral blood, leukocytary formula, the presence of marker specific lymphocytes (CD3, CD4, CD8, CD16, CD95 and CD20), lysosomal activity of neutrophils; oxygen-dependent metabolism with spontaneous and induced hematocrit (HCT) tests, phagocytary function of neutrophils according to the latex particle absorption model; immunoglobulin IgA, IgM, IgG concentrations; total hemolytic activity of complement (CH50) in blood serum and for circulating immune complexes. […] A concentration of 10 MU/liter (l) was assumed to be a protective hepatitis B titer.
The immunomodulator SCV-07 was administered at the same time as the hepatitis B vaccine to determine if SCV-07 increased the efficacy of vaccination and to determine if it would correct the immunity disorders of subjects with infectious syndrome. A one milligram (1 mg) dose of SCV-07 was administered as an intra muscular injection to the 32 subjects of Group 2 of the study on days one to five, where day one was the day the first dose of the hepatitis B vaccine was administered. One (1) mg of SCV-07 was also administered with the second and third doses of vaccine one month and 6 months following administration of the initial vaccine dose. Study participants in Group I received injections of physiological saline which were administered on the same schedule as the SCV-07 to provide a placebo control group.

[2] = test system: IL-4 production by OvA-stimulated splenocytes; test: OvA-stimulated production of IL-4 by splenocytes of OvA-immunized mice
Method: (§1) The OvA was administered subcutaneously to the crest in a volume of 200 μl. Mice were immunized on day 1 with OvA in complete Freund's adjuvant (CFA; Sigma) and on day 15 with the antigen in incomplete Freund's adjuvant (IFA; Sigma). The immune response was analyzed on day 29. Mice were also immunized with 10 μg/mouse of OvA using Alum as an adjuvant.
(§2) Thymuses and spleens from mice of each treatment group were pooled, and then minced with scissors. The minced tissues were suspended in sterile PBS to form cell suspensions, filtered through a double gauze layer and centrifuged. Cells were washed twice with PBS, re-suspended in RPMI-1640 (Sigma) with 2.0 mM of L-glutamine, 50 μM of mercaptoethanol, and 10 μg/ml of gentamycin (complete medium); and cell counts were made. (The splenocyte suspension was washed with a 0.86% solution of NH4Cl to pre-lyse erthrocytes.)
Assessment of Mitogen- and Antigen-Induced Production of Cytokines: Thymic cells (1×10^6/well) in complete medium with 2% FCS were stimulated with ConA (0, 1, and 2 μg/ml). […] Concentrations of IL-2, IL-4, IL-10, IL-12R40 and IFNγ in the supernatants were determined by solid-phase EIA with EIA Expansion Kits, available from BD Biosciences (formerly Pharmingen), in accordance with the manufacturer's instructions.

neutrophils = test: Concentration and functional activity of neutrophils (phagocytosis, lysosomal activity, spontaneous and induced HCT test) before and after vaccination; type: in vivo, human
[3] = test system: IL-2 production by OvA-stimulated splenocytes; test: OvA-stimulated production of IL-2 by splenocytes of OvA-immunized mice; details: for activity at 0.0001 mg/kg / activity at 0.001 mg/kg / activity at 0.01 mg/kg: Mus musculus, Splenocyte, po; for activity at 0.001 mg/kg: 1.0 μg/kg per os; for activity at 0.01 mg/kg: 10.0 μg/kg per os; for Production of IL-2 by splenocytes / Production of IL-2 by splenocytes, % (% of control): OvA/Alum
Method: as §1, §2
Assessment of Mitogen- and Antigen-Induced Production of Cytokines: Thymic cells (1×10^6/well) in complete medium with 2% FCS were stimulated with ConA (0, 1, and 2 μg/ml). Splenocytes (1×10^6/well) in complete medium with 5% FCS were stimulated with ConA (0, 1, and 5 μg/ml) and with OvA (0-100 μg/ml). […] Supernatants from OvA-stimulated cultures were collected after 72 hours. Supernatants from both cultures were frozen, and kept at 20° C. Concentrations of IL-2, IL-4, IL-10, IL-12R40 and IFNγ in the supernatants were determined by solid-phase EIA with EIA Expansion Kits, available from BD Biosciences (formerly Pharmingen), in accordance with the manufacturer's instructions.

[4] = Group 2 (patients with infectious syndrome, hepatitis B vaccination with SCV-07), after vaccination, n = 16, M ± m
[5] = read-out: Production of IL-2 by splenocytes, % (% of control), OvA/Alum, OvA 0 μg/ml
[6] = read-out: Production of IL-2 by splenocytes, % (% of control), OvA/Alum, OvA 1 μg/ml
[7] = read-out: Production of IL-2 by splenocytes, % (% of control), OvA/Alum, OvA 10 μg/ml
[8] = read-out: Production of IL-2 by splenocytes, % (% of control), OvA/Alum, OvA 25 μg/ml
[9] = read-out: Production of IL-2 by splenocytes, % (% of control), OvA/Alum, OvA 100 μg/ml
[10] = read-out: Production of IL-2 by splenocytes, % (% of control), OvA/FA, OvA 0 μg/ml
[11] = read-out: Production of IL-2 by splenocytes, % (% of control), OvA/FA, OvA 1 μg/ml
[12] = read-out: Production of IL-2 by splenocytes, % (% of control), OvA/FA, OvA 10 μg/ml
[13] = read-out: Production of IL-2 by splenocytes, % (% of control), OvA/FA, OvA 25 μg/ml
[14] = read-out: Production of IL-2 by splenocytes, % (% of control), OvA/FA, OvA 100 μg/ml

N[C@H](CCC(=O)N[C@@H](Cc1c[nH]c2ccccc12)C(=O)O)C(=O)O [SCV-07, γ-D-glutamyl-L-tryptophan]
CD20+ % [1]: 15.93 ± 1.20%
CH50, conv. units [1]: 64.53 ± 4.11 conv. units
CIC, conv. units [1]: 53.93 ± 8.03 conv. units
IgA [1]: 1.821 ± 0.087 g/L
IgG [1]: 8.931 ± 0.481 g/L
IgM [1]: 1.179 ± 0.089 g/L
levels of IL-4 production in supernatants of OvA-stimulated splenocytes ([2]; OvA/Alum, all animal groups): below the sensitivity of the test system
levels of IL-4 in supernatants of OvA-stimulated splenocytes ([2]; OvA/FA, all animals, below the sensitivity of the test-system): < 6 pg/mL
Activity of phagocytosis % (neutrophils; [4]): 46.88 ± 4.92%
Functional reserve, conv. units (neutrophils; [4]): 1.929 ± 0.225 conv. units
Induced HCT-test, activity, % (neutrophils; [4]): 48.63 ± 4.62%
Induced HCT-test, index, conv. units (neutrophils; [4]): 0.732 ± 0.08 conv. units
Intensity of phagocytosis, conv. units (neutrophils; [4]): 1.44 ± 0.189 conv. units
Lysosomal activity, conv. units (neutrophils; [4]): 198.7 ± 22.5 conv. units
Neutrophils % (neutrophils; [4]): 56.56 ± 2.07%
Neutrophils × 10^9/l (neutrophils; [4]): 3.403 ± 0.27 × 10^9/l
Phagocytary number, conv. units (neutrophils; [4]): 2.92 ± 0.255 conv. units
Spontaneous HCT-test, activity, % (neutrophils; [4]): 34.50 ± 5.62%
Spontaneous HCT-test, index, conv. (neutrophils; [4]): 0.50 ± 0.093 conv.
spontaneous activity and intensity of neutrophils in the HCT reaction (neutrophils; immunodeficient subjects with SCV-07 versus vaccine only and versus healthy, p<0.05): significantly lower
activities of neutrophils in the induced HCT test (neutrophils; subjects who received SCV-07 versus vaccinated without immunomodulator, after vaccination, p<0.05): significantly higher
activity at 0.0001 mg/kg ([3]; read-out: Production of IL-2 by splenocytes, % (% of control), OvA/Alum, 0.1 μg/kg per os, OvA 0 μg/ml): 100%
activity at 0.0001 mg/kg ([3]; read-out: Production of IL-2 by splenocytes, % (% of control), OvA/Alum, 0.1 μg/kg per os, OvA 1 μg/ml): 94.3%
activity at 0.0001 mg/kg ([3]; read-out: Production of IL-2 by splenocytes, % (% of control), OvA/Alum, 0.1 μg/kg per os, OvA 10 μg/ml): 72%
activity at 0.0001 mg/kg ([3]; read-out: Production of IL-2 by splenocytes, % (% of control), OvA/Alum, 0.1 μg/kg per os, OvA 25 μg/ml): 148%
activity at 0.0001 mg/kg ([3]; read-out: Production of IL-2 by splenocytes, % (% of control), OvA/Alum, 0.1 μg/kg per os, OvA 100 μg/ml): 52.5%
activity at 0.001 mg/kg [3, 5]: 100%
activity at 0.001 mg/kg [3, 6]: 57.7%
activity at 0.001 mg/kg [3, 7]: 113%
activity at 0.001 mg/kg [3, 8]: 75.4%
activity at 0.001 mg/kg [3, 9]: 74.7%
activity at 0.01 mg/kg [3, 5]: 100%
activity at 0.01 mg/kg [3, 6]: 191%
activity at 0.01 mg/kg [3, 7]: 87.2%
activity at 0.01 mg/kg [3, 8]: 75.6%
activity at 0.01 mg/kg [3, 9]: 104%
activity at 0.0001 mg/kg ([3]; read-out: Production of IL-2 by splenocytes, % (% of control), OvA/FA, 0.1 μg/kg per os, OvA 0 μg/ml): 100%
activity at 0.0001 mg/kg ([3]; read-out: Production of IL-2 by splenocytes, % (% of control), OvA/FA, 0.1 μg/kg per os, OvA 1 μg/ml): 32.4%
activity at 0.0001 mg/kg ([3]; read-out: Production of IL-2 by splenocytes, % (% of control), OvA/FA, 0.1 μg/kg per os, OvA 10 μg/ml): 43.9%
activity at 0.0001 mg/kg ([3]; read-out: Production of IL-2 by splenocytes, % (% of control), OvA/FA, 0.1 μg/kg per os, OvA 25 μg/ml): 119%
activity at 0.0001 mg/kg ([3]; read-out: Production of IL-2 by splenocytes, % (% of control), OvA/FA, 0.1 μg/kg per os, OvA 100 μg/ml): 44.8%
activity at 0.001 mg/kg [3, 10]: 100%
activity at 0.001 mg/kg [3, 11]: 67.6%
activity at 0.001 mg/kg [3, 12]: 248%
activity at 0.001 mg/kg [3, 13]: 125%
activity at 0.001 mg/kg [3, 14]: 231%
activity at 0.01 mg/kg [3, 10]: 100%
activity at 0.01 mg/kg [3, 11]: 49.2%
activity at 0.01 mg/kg [3, 12]: 187%
activity at 0.01 mg/kg [3, 13]: 176%
activity at 0.01 mg/kg [3, 14]: 293%
Production of IL-2 by splenocytes ([3]; 0.1 μg/kg i/p, OvA 0 μg/ml): 163.0 pg/mL
Production of IL-2 by splenocytes ([3]; 0.1 μg/kg i/p, OvA 1 μg/ml): 190.3 pg/mL
Production of IL-2 by splenocytes, % (% of control) ([3]; 0.1 μg/kg i/p, OvA 1 μg/ml): 116.7%
Production of IL-2 by splenocytes ([3]; 0.1 μg/kg i/p, OvA 10 μg/ml): 87.5 pg/mL
Production of IL-2 by splenocytes, % (% of control) ([3]; 0.1 μg/kg i/p, OvA 10 μg/ml): 53.7%
Production of IL-2 by splenocytes ([3]; 0.1 μg/kg i/p, OvA 25 μg/ml): 83.5 pg/mL
Production of IL-2 by splenocytes, % (% of control) ([3]; 0.1 μg/kg i/p, OvA 25 μg/ml): 51.2%
Production of IL-2 by splenocytes ([3]; 0.1 μg/kg i/p, OvA 100 μg/ml): 84.8 pg/mL
Production of IL-2 by splenocytes, % (% of control) ([3]; 0.1 μg/kg i/p, OvA 100 μg/ml): 52.0%
Production of IL-2 by splenocytes ([3]; 0.1 μg/kg per os, OvA 0 μg/ml): 172.9 pg/mL
Production of IL-2 by splenocytes ([3]; 0.1 μg/kg per os, OvA 1 μg/ml): 163.0 pg/mL
Production of IL-2 by splenocytes ([3]; 0.1 μg/kg per os, OvA 10 μg/ml): 124.5 pg/mL
Production of IL-2 by splenocytes ([3]; 0.1 μg/kg per os, OvA 25 μg/ml): 255.5 pg/mL
Production of IL-2 by splenocytes ([3]; 0.1 μg/kg per os, OvA 100 μg/ml): 90.8 pg/mL
Production of IL-2 by splenocytes ([3]; 1.0 μg/kg i/p, OvA 0 μg/ml): 113.4 pg/mL
Production of IL-2 by splenocytes ([3]; 1.0 μg/kg i/p, OvA 1 μg/ml): 173.7 pg/mL
Production of IL-2 by splenocytes, % (% of control) ([3]; 1.0 μg/kg i/p, OvA 1 μg/ml): 153.2%
Production of IL-2 by splenocytes ([3]; 1.0 μg/kg i/p, OvA 10 μg/ml): 167.9 pg/mL
